SMILES strings stand for the structures. Converted amounts (≈) assume the structure as drawn. Read-outs that look alike come from different tables or passages of the source.

Our source for the CC50 and MIC values is publication PMC11178787, “Development of a natural product optimization strategy for inhibitors against MraY, a promising antibacterial target” (Nature Communications, 2024).

One data set is described as follows: in vitro. On the set-up: WST-8 cell viability assay in HepG2 cells. As to conditions: human, hepg2 cells; read-out: IC50. The method, then:
Cells were regularly passed to maintain exponential growth. HepG2 cells were sowed by 1.0 × 10^4 cells for each well in 96-well plate and cultured at 37 °C under 5% CO2 in air for 24 h. The cells were treated with a solution of test compounds in DMSO at various concentration and incubated at 37 °C under 5% CO2 in air for 24 h. After that, the WST-8 (Dojindo) cell proliferation assay was used. Cell viability was indicated as a percentage of the negative control (cells treated with DMSO only) and that value was fixed at 100%.

Data set [1] relates to T1, Staphylococcus aureus #2931.
T1 construct: #2931
Description: microbe, parasite or virus in culture. The conditions noted are these: Staphylococcus aureus, 18 h, read-out: MIC. Set-up: CLSI broth microdilution MIC in MHB-II. An outline of the steps: (§1)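 MICs were determined by CLSI broth microdilution in MHB-II, with inocula of 5 × 10^5 cfu/mL and 2-fold compound dilutions added from DMSO (<1% final). Plates were incubated 18 h at 37 °C. For stable analogues, the highest value of three trials is reported; other values come from a single trial.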

The test system of another data set is T2, Enterococcus faecalis 23.
T2 construct: 23
The data set is described as follows: microbe, parasite or virus in culture. On the set-up: CLSI broth microdilution MIC in MHB-II. As to conditions: Enterococcus faecalis, 23, 18 h, read-out: MIC. The method in brief: as §1

The test system of another data set is T3, Enterococcus faecalis 25.
T3 construct: 25
Description: microbe, parasite or virus in culture. On the set-up: CLSI broth microdilution MIC in MHB-II. The conditions noted are these: Enterococcus faecalis, 25, 18 h, read-out: MIC. The method in brief: as §1

Another data set deals with T4, Enterococcus faecalis 29.
T4 construct: 29
Description: microbe, parasite or virus in culture. As to conditions: Enterococcus faecalis, 29, 18 h, read-out: MIC. On the set-up: CLSI broth microdilution MIC in MHB-II. The method in brief: as §1

Data set [2] has as its system T5, E. faecium(VRE) ATCC 51559.
T5 construct: ATCC 51559 (VRE)
Description: microbe, parasite or virus in culture. Set-up: CLSI broth microdilution MIC in MHB-II, single trial. The conditions noted are these: Enterococcus faecium, 18 h. As to the method:
(§2) MICs were determined by a microdilution broth method as recommended by the CLSI with MHB-II. For MICs of stable analogues, a 2-fold dilution of each compound was prepared in DMSO at 100-fold of the final concentration. The strains were inoculated with 5 × 10^5 cfu/mL in 96-well plates (each 100 μL/well), and 1 μL of DMSO solutions of the samples were added (contained less than 1% DMSO). The plates were incubated at 37 °C for 18 h and then MICs were determined. MICs of stable analogues in Table 1 were the highest value in three trials. MICs in Supplementary Table 1 were determined in one trial.

Data set [3] concerns T6, E. faecalis(VRE) ATCC 51299.
T6 construct: ATCC 51299 (VRE)
The data set is described as follows: microbe, parasite or virus in culture. On the set-up: CLSI broth microdilution MIC in MHB-II, single trial. As to conditions: Enterococcus faecalis, 18 h. The method, then:
as §2

The next data set relates to T7, E. faecium ATCC 35667.
T7 construct: ATCC 35667
The data set is described as follows: microbe, parasite or virus in culture. On the set-up: CLSI broth microdilution MIC in MHB-II, single trial. As to conditions: Enterococcus faecium, ATCC35667, 18 h. As to the method: as §2

Data set [4] concerns T8, E. faecium(VRE) ATCC 51858.
T8 construct: ATCC 51858 (VRE)
Description: microbe, parasite or virus in culture. Set-up: CLSI broth microdilution MIC in MHB-II, single trial. The conditions noted are these: Enterococcus faecium, 18 h. As to the method: as §2

The subject of data set [5] is T9, Staphylococcus aureus MRSA JE2.
T9 construct: JE2 (MRSA)
Description: microbe, parasite or virus in culture. On the set-up: CLSI broth microdilution MIC in MHB-II, single trial. As to conditions: 18 h. As to the method: as §2

The next data set relates to T10, S. aureus ATCC 29213.
T10 construct: ATCC 29213
The data set is described as follows: microbe, parasite or virus in culture. The conditions noted are these: Staphylococcus aureus, ATCC29213, 18 h. Set-up: CLSI broth microdilution MIC in MHB-II, single trial. As to the method:
as §2

On to `CCCCCCCCCCCCCCCC(=O)N[C@@H](CCCNC(=N)N)C(=O)NCc1ccc(CN[C@H](C(=O)O)[C@H](O[C@@H]2O[C@H](CN)[C@@H](O)[C@H]2O)[C@H]2O[C@@H](n3ccc(=O)[nH]c3=O)[C@H](O)[C@@H]2O)cc1` [compound 3, analogue 3], for which, in the data set “in vitro”, the CC50 at 24 h stood at 18 µM. Besides, the MIC is 1 µg/mL (≈ 1.04 µM) in data set [1]; 0.13 µg/mL (≈ 0.135 µM) with Enterococcus faecalis 23; 0.13 µg/mL (≈ 0.135 µM) with Enterococcus faecalis 25; 0.25 µg/mL (≈ 0.26 µM) with Enterococcus faecalis 29; 0.5 µg/mL (≈ 0.52 µM) in data set [2] (read-out: 3 MIC); 0.5 µg/mL (≈ 0.52 µM) in data set [3] (read-out: 3 MIC). Also, the MIC with E. faecium ATCC 35667 (read-out: 3 MIC) was found to be 1 µg/mL (≈ 1.04 µM); in [4] (read-out: 3 MIC), 2 µg/mL (≈ 2.08 µM); in data set [5] (read-out: 3 MIC), 1 µg/mL (≈ 1.04 µM); in the data set on S. aureus ATCC 29213 (read-out: 3 MIC) it was 1 µg/mL (≈ 1.04 µM).
With `CCCCCCCCCCCCCCCC(=O)N[C@@H](CCCCN)C(=O)Nc1cccc(CN[C@H](C(=O)O)[C@H](O[C@@H]2O[C@H](CN)[C@@H](O)[C@H]2O)[C@H]2O[C@@H](n3ccc(=O)[nH]c3=O)[C@H](O)[C@@H]2O)c1` [compound 6, analogue 6], the CC50 at 24 h in “in vitro” turned out to be 16 µM. The MIC in [1] worked out at 0.5 µg/mL (≈ 0.543 µM); in the data set on Enterococcus faecalis 23, 0.5 µg/mL (≈ 0.543 µM); in the data set with Enterococcus faecalis 25, 0.5 µg/mL (≈ 0.543 µM); in the data set on Enterococcus faecalis 29, 0.25 µg/mL (≈ 0.272 µM); in data set [2] (read-out: 6 MIC) it was 1 µg/mL (≈ 1.09 µM); in data set [3] (read-out: 6 MIC), 0.5 µg/mL (≈ 0.543 µM). The MIC with E. faecium ATCC 35667 (read-out: 6 MIC) came to 0.5 µg/mL (≈ 0.543 µM); in data set [4] (read-out: 6 MIC), 2 µg/mL (≈ 2.17 µM); in [5] (read-out: 6 MIC) it was 1 µg/mL (≈ 1.09 µM); with S. aureus ATCC 29213 (read-out: 6 MIC), 1 µg/mL (≈ 1.09 µM).
Turning to `CCCCCCCCCCCCCCCC(=O)N[C@@H](CCCNC(=N)N)C(=O)Nc1ccc(CN[C@H](C(=O)O)[C@H](O[C@@H]2O[C@H](CN)[C@@H](O)[C@H]2O)[C@H]2O[C@@H](n3ccc(=O)[nH]c3=O)[C@H](O)[C@@H]2O)cc1` [compound 7, analogue 7], the CC50 at 24 h in “in vitro” was found to be 25 µM. In addition, the MIC is 1 µg/mL (≈ 1.05 µM) in [1]; 0.5 µg/mL (≈ 0.527 µM) with Enterococcus faecalis 23; 0.25 µg/mL (≈ 0.264 µM) with Enterococcus faecalis 25; less than 0.06 µg/mL in the data set on Enterococcus faecalis 29; 0.5 µg/mL (≈ 0.527 µM) in data set [2] (read-out: 7 MIC); 0.5 µg/mL (≈ 0.527 µM) in data set [3] (read-out: 7 MIC). Also, the MIC in the data set on E. faecium ATCC 35667 (read-out: 7 MIC) came to 0.5 µg/mL (≈ 0.527 µM); in [4] (read-out: 7 MIC) it was 2 µg/mL (≈ 2.11 µM); in [5] (read-out: 7 MIC), 1 µg/mL (≈ 1.05 µM); in the data set on S. aureus ATCC 29213 (read-out: 7 MIC) it was 1 µg/mL (≈ 1.05 µM).
As for `CCCCCCCCCCCCCCCC(=O)N[C@@H](CCCNC(=N)N)C(=O)Nc1cccc(CN[C@H](C(=O)O)[C@H](O[C@@H]2O[C@H](CN)[C@@H](O)[C@H]2O)[C@H]2O[C@@H](n3ccc(=O)[nH]c3=O)[C@H](O)[C@@H]2O)c1` [compound 8, analogue 8], in “in vitro”, the CC50 at 24 h stood at 23 µM. The MIC in [1] amounted to 1 µg/mL (≈ 1.05 µM); with Enterococcus faecalis 23, 0.25 µg/mL (≈ 0.264 µM); in the data set on Enterococcus faecalis 25, 0.5 µg/mL (≈ 0.527 µM); in the data set with Enterococcus faecalis 29, 0.13 µg/mL (≈ 0.137 µM); in [2] (read-out: 8 MIC), 1 µg/mL (≈ 1.05 µM); in [3] (read-out: 8 MIC) it was 1 µg/mL (≈ 1.05 µM). Also, the MIC in the data set with E. faecium ATCC 35667 (read-out: 8 MIC) worked out at 0.5 µg/mL (≈ 0.527 µM); in [4] (read-out: 8 MIC), 2 µg/mL (≈ 2.11 µM); in data set [5] (read-out: 8 MIC), 2 µg/mL (≈ 2.11 µM); with S. aureus ATCC 29213 (read-out: 8 MIC), 1 µg/mL (≈ 1.05 µM).
Take `C[C@H]1COc2c(N3CCN(C)CC3)c(F)cc3c(=O)c(C(=O)O)cn1c23` [levofloxacin]: the MIC in data set [1] came to 16 µg/mL (≈ 44.3 µM); in the data set on Enterococcus faecalis 23, 1 µg/mL (≈ 2.77 µM); with Enterococcus faecalis 25, 0.5 µg/mL (≈ 1.38 µM); in the data set with Enterococcus faecalis 29 it was 0.5 µg/mL (≈ 1.38 µM); in data set [2] (read-out: levofloxacin MIC) it was 16 µg/mL (≈ 44.3 µM); in [3] (read-out: levofloxacin MIC), 1 µg/mL (≈ 2.77 µM). Further, the MIC stood at 4 µg/mL (≈ 11.1 µM) in the data set with E. faecium ATCC 35667 (read-out: levofloxacin MIC), 4 µg/mL (≈ 11.1 µM) in data set [4] (read-out: levofloxacin MIC), 8 µg/mL (≈ 22.1 µM) in [5] (read-out: levofloxacin MIC) and 0.13 µg/mL (≈ 0.36 µM) with S. aureus ATCC 29213 (read-out: levofloxacin MIC).
